Source: patent US10428083B2, “Heterocyclylmethyl-thienouracile as antagonists of the adenosine-A2B-receptor” (BAYER PHARMA AKTIENGESELLSCHAFT, priority 2015, dated 2019)
pIC50: −log10 of the molar value.

Molecular target: human adenosine A2b receptor (Homo sapiens (Human), UniProt P29275)
Experiment: Cellular in vitro reporter gene test for A2b receptor activity (CHO-K1, CRE-luciferase, NECA stimulation)
Format: cell-based
Conditions: recombinant CHO-K1 cell line, CRE-luciferase reporter, antagonism of EC50 concentration of NECA; in some cases means of several determinations, rounded to two significant figures; read-out: A2b receptor IC50
In short: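 CHO-K1 cells with CRE-driven luciferase; antagonists co-incubated with NECA at its EC50, determined in a pre-experiment on each test day. Luciferase read by luminescence 3 h after NECA addition.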

human adenosine A2b receptor, sequence (P29275 whole entry): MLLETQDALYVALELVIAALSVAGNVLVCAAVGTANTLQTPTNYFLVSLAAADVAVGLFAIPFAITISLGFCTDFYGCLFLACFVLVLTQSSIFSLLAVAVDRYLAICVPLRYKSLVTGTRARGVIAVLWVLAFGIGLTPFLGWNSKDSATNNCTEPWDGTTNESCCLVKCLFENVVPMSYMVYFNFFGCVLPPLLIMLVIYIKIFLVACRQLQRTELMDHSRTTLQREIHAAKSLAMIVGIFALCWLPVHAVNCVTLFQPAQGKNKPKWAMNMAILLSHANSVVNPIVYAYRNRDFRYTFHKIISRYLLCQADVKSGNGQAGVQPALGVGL

Compound: COC(=O)N=C1NCCN1Cc1sc2c(c1C)c(=O)n(CC(C)OC)c(=O)n2CCC(F)(F)F (single isomer, unassigned) [Example 474, Methyl [1-{[3-(2-methoxypropyl)-5-methyl-2,4-dioxo-1-(3,3,3-trifluoropropyl)-1,2,3,4-tetrahydrothieno[2,3-d]pyrimidin-6-yl]methyl}imidazolidin-2-ylidene]carbamate]
- pIC50: 8.25

Compound: CCn1c(=O)c2c(C)c(Cn3nc[nH]c3=O)sc2n(CC2CCCO2)c1=O (racemic) [Example 419, 3-Ethyl-5-methyl-6-[(5-oxo-4,5-dihydro-1H-1,2,4-triazol-1-yl)methyl]-1-(tetrahydrofuran-2-ylmethyl)thieno[2,3-d]pyrimidine-2,4(1H,3H)-dione]
- pIC50: 6.89

Compound: Cc1c(CN2CCNC(=O)C2=O)sc2c1c(=O)n(CC(F)(F)F)c(=O)n2CCC(F)(F)F [Example 122, 6-[(2,3-Dioxopiperazin-1-yl)methyl]-5-methyl-3-(2,2,2-trifluoroethyl)-1-(3,3,3-trifluoropropyl)thieno[2,3-d]pyrimidine-2,4(1H,3H)-dione]
- pIC50: 8.41

Compound: CCSCCn1c(=O)n(CC)c(=O)c2c(C)c(CN3CCNC3=S)sc21 [Example 294, 3-Ethyl-1-[2-(ethylsulphanyl)ethyl]-5-methyl-6-[(2-thioxoimidazolidin-1-yl)methyl]thieno[2,3-d]pyrimidine-2,4(1H,3H)-dione]
- pIC50: 7.70

Compound: COC(=O)N=C1NCCN1Cc1sc2c(c1C)c(=O)n(CC(F)(F)F)c(=O)n2CC1CCCO1 (single isomer, unassigned) [Example 469, Methyl [1-{[5-methyl-2,4-dioxo-1-(tetrahydrofuran-2-ylmethyl)-3-(2,2,2-trifluoroethyl)-1,2,3,4-tetrahydrothieno[2,3-d]pyrimidin-6-yl]methyl}imidazolidin-2-ylidene]carbamate]
- pIC50: 8.06

Compound: Cc1c(Cn2[nH]ccc2=O)sc2c1c(=O)n(C(C)C)c(=O)n2CC1CCCO1 (single isomer, unassigned) [Example 135, 3-Isopropyl-5-methyl-6-[(5-oxo-2,5-dihydro-1H-pyrazol-1-yl)methyl]-1-(tetrahydrofuran-2-ylmethyl)thieno[2,3-d]pyrimidine-2,4(1H,3H)-dione]
- pIC50: 7.34

Compound: COC(=O)N=C1NCCN1Cc1sc2c(c1C)c(=O)n(C(C)C)c(=O)n2CC1CCCO1 (racemic) [Example 380, Methyl [1-{[3-isopropyl-5-methyl-2,4-dioxo-1-(tetrahydrofuran-2-ylmethyl)-1,2,3,4-tetrahydrothieno[2,3-d]pyrimidin-6-yl]methyl}imidazolidin-2-ylidene]carbamate]
- pIC50: 7.92

Compound: Cc1c(CN2CCN(C)C2=O)sc2c1c(=O)n(CC(F)(F)F)c(=O)n2CCC(F)(F)F [Example 336, 5-Methyl-6-[(3-methyl-2-oxoimidazolidin-1-yl)methyl]-3-(2,2,2-trifluoroethyl)-1-(3,3,3-trifluoropropyl)thieno[2,3-d]pyrimidine-2,4(1H,3H)-dione]
- pIC50: 8.06

Compound: COC(C)Cn1c(=O)c2c(C)c(CN3CCNC3=O)sc2n(CCC(F)(F)F)c1=O (single isomer, unassigned) [Example 414, 3-(2-Methoxypropyl)-5-methyl-6-[(2-oxoimidazolidin-1-yl)methyl]-1-(3,3,3-trifluoropropyl)thieno[2,3-d]pyrimidine-2,4(1H,3H)-dione]
- pIC50: 7.96

Compound: CCn1c(=O)c2c(C)c(Cn3cc[nH]c3=O)sc2n(CC2CCCO2)c1=O (racemic) [Example 242, 3-Ethyl-5-methyl-6-[(2-oxo-2,3-dihydro-1H-imidazol-1-yl)methyl]-1-(tetrahydrofuran-2-ylmethyl)thieno[2,3-d]pyrimidine-2,4(1H,3H)-dione]
- pIC50: 8.85

Compound: COC(=O)N=C1NCCN1Cc1sc2c(c1C)c(=O)n(C(C)C)c(=O)n2CC1CCO1 (single isomer, unassigned) [Example 458, Methyl [1-{[3-isopropyl-5-methyl-1-(oxetan-2-ylmethyl)-2,4-dioxo-1,2,3,4-tetrahydrothieno[2,3-d]pyrimidin-6-yl]methyl}imidazolidin-2-ylidene]carbamate]
- pIC50: 7.47

Compound: Cc1c(CN2CCNC(=O)C2=O)sc2c1c(=O)n(CC(C)(C)C)c(=O)n2CC1CCCO1 (single isomer, unassigned) [Example 485, 3-(2,2-Dimethylpropyl)-6-[(2,3-dioxopiperazin-1-yl)methyl]-5-methyl-1-(tetrahydrofuran-2-ylmethyl)thieno[2,3-d]pyrimidine-2,4(1H,3H)-dione]
- pIC50: 7.28

Compound: CCn1c(=O)c2c(C)c(CN3CCNC3=O)sc2n(CCC(F)(F)F)c1=O [Example 48, 3-Ethyl-5-methyl-6-[(2-oxoimidazolidin-1-yl)methyl]-1-(3,3,3-trifluoropropyl)thieno[2,3-d]pyrimidine-2,4(1H,3H)-dione]
- pIC50: 8.85

Compound: Cc1c(CN2CCNC2=O)sc2c1c(=O)n(C(C)C)c(=O)n2CCC(F)(F)F [Example 181, 3-Isopropyl-5-methyl-6-[(2-oxoimidazolidin-1-yl)methyl]-1-(3,3,3-trifluoropropyl)thieno[2,3-d]pyrimidine-2,4(1H,3H)-dione]
- pIC50: 8.82

Compound: [2H]C([2H])(c1sc2c(c1C)c(=O)n([C@@H](C)C(F)(F)F)c(=O)n2CCOC)N1CCNC1=O [Example 502, 1-(2-Methoxyethyl)-5-methyl-6-[(2-oxoimidazolidin-1-yl)(dideutero)methyl]-3-[(2S)-1,1,1-trifluoropropan-2-yl]thieno[2,3-d]pyrimidine-2,4(1H,3H)-dione]
- pIC50: 7.74

Compound: COCCn1c(=O)c2c(C)c(CN3CCNC3=S)sc2n(CCC(F)(F)F)c1=O [Example 167, 3-(2-Methoxyethyl)-5-methyl-6-[(2-thioxoimidazolidin-1-yl)methyl]-1-(3,3,3-trifluoropropyl)thieno[2,3-d]pyrimidine-2,4(1H,3H)-dione]
- pIC50: 8.92

Compound: COCCn1c(=O)n(CC(F)F)c(=O)c2c(C)c(CN3CCNC3=S)sc21 [Example 43]
- pIC50: 8.11

Compound: COCCn1c(=O)n(C(C)C(F)(F)F)c(=O)c2c(C)c(CN3CCNC3=O)sc21 (racemic) [Example 410, 1-(2-Methoxyethyl)-5-methyl-6-[(2-oxoimidazolidin-1-yl)methyl]-3-(1,1,1-trifluoropropan-2-yl)thieno[2,3-d]pyrimidine-2,4(1H,3H)-dione]
- pIC50: 7.92

Compound: CCn1c(=O)c2c(C)c(CN3CCNC3=S)sc2n(CCOC(C)C)c1=O [Example 33, 3-Ethyl-1-(2-isopropoxyethyl)-5-methyl-6-[(2-thioxoimidazolidin-1-yl)methyl]thieno[2,3-d]pyrimidine-2,4(1H,3H)-dione]
- pIC50: 7.92

Compound: CCn1c(=O)c2c(C)c(CN3CCNC3=O)sc2n(CC2CCO2)c1=O (racemic) [Example 65, 3-Ethyl-5-methyl-1-(oxetan-2-ylmethyl)-6-[(2-oxoimidazolidin-1-yl)methyl]thieno[2,3-d]pyrimidine-2,4(1H,3H)-dione (racemate)]
- pIC50: 7.92

Compound: CCn1c(=O)c2c(C)c(CN3CCNC3=O)sc2n(CC2CC2(F)F)c1=O (racemic) [Example 54, 1-[(2,2-Difluorocyclopropyl)methyl]-3-ethyl-5-methyl-6-[(2-oxoimidazolidin-1-yl)methyl]thieno[2,3-d]pyrimidine-2,4(1H,3H)-dione (racemate)]
- pIC50: 8.39

Compound: Cc1c(CN2CCNC2=O)sc2c1c(=O)n(CC(C)C)c(=O)n2C [Example 91, 3-Isobutyl-1,5-dimethyl-6-[(2-oxoimidazolidin-1-yl)methyl]thieno[2,3-d]pyrimidine-2,4(1H,3H)-dione]
- pIC50: 7.96
